Legend:
Settings in all cases: Compound concentration 1.0 uM
[1] = target: T1, Rhodopsin kinase GRK7 (Homo sapiens) (UniProt Q8WTQ7)
T1 sequence (whole entry): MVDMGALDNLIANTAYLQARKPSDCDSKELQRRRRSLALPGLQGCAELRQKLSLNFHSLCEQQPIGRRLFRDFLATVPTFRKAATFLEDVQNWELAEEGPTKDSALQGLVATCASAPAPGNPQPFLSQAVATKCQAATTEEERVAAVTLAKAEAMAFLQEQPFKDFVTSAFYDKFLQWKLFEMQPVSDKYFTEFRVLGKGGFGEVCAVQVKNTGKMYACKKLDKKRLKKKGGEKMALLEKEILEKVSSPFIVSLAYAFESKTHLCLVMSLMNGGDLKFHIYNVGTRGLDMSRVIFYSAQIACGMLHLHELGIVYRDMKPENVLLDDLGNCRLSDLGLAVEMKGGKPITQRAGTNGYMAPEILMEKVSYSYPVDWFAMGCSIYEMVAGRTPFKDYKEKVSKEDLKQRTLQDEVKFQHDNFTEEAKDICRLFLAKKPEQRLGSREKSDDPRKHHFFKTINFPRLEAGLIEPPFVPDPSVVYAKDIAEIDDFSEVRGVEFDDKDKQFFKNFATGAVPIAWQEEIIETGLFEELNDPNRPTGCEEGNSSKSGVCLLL

[2] = target: Mitogen-activated protein kinase 8 (Homo sapiens) (UniProt P45983)
[3] = target: Serine/threonine-protein kinase N1 (Homo sapiens) (UniProt Q16512)
[4] = target: Serine/threonine-protein kinase PAK 6 (Homo sapiens) (UniProt Q9NQU5)
[5] = target: Vascular endothelial growth factor receptor 3 (Homo sapiens) (UniProt P35916)
[6] = target: T2, Serine/threonine-protein kinase 4 (Homo sapiens) (UniProt Q13043)
T2 sequence (whole entry): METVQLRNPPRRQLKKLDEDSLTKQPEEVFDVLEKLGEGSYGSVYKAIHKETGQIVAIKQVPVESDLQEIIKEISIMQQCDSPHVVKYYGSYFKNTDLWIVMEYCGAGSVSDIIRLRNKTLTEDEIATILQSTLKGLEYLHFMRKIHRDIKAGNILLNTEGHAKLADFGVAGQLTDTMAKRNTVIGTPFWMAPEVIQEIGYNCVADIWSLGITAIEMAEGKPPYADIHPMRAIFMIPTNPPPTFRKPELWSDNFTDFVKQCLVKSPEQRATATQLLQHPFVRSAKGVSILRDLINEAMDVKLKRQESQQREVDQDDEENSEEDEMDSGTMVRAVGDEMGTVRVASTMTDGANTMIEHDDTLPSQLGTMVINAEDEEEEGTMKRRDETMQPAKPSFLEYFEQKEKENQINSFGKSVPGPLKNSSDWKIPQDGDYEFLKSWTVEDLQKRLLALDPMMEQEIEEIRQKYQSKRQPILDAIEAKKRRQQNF

[7] = target: Tyrosine-protein kinase HCK (Homo sapiens) (UniProt P08631)
[8] = target: Cyclin-dependent kinase 5/CDK5 activator 1 (Homo sapiens) (UniProt Q00535+Q15078)
[9] = target: Phosphorylase b kinase gamma catalytic chain, skeletal muscle/heart isoform (Homo sapiens) (UniProt Q16816)
[10] = target: RAC-gamma serine/threonine-protein kinase (Homo sapiens) (UniProt Q9Y243)
[11] = target: Ribosomal protein S6 kinase alpha-6 (Homo sapiens) (UniProt Q9UK32)
[12] = target: T3, Ephrin type-B receptor 4 (Homo sapiens) (UniProt P54760)
T3 sequence (whole entry): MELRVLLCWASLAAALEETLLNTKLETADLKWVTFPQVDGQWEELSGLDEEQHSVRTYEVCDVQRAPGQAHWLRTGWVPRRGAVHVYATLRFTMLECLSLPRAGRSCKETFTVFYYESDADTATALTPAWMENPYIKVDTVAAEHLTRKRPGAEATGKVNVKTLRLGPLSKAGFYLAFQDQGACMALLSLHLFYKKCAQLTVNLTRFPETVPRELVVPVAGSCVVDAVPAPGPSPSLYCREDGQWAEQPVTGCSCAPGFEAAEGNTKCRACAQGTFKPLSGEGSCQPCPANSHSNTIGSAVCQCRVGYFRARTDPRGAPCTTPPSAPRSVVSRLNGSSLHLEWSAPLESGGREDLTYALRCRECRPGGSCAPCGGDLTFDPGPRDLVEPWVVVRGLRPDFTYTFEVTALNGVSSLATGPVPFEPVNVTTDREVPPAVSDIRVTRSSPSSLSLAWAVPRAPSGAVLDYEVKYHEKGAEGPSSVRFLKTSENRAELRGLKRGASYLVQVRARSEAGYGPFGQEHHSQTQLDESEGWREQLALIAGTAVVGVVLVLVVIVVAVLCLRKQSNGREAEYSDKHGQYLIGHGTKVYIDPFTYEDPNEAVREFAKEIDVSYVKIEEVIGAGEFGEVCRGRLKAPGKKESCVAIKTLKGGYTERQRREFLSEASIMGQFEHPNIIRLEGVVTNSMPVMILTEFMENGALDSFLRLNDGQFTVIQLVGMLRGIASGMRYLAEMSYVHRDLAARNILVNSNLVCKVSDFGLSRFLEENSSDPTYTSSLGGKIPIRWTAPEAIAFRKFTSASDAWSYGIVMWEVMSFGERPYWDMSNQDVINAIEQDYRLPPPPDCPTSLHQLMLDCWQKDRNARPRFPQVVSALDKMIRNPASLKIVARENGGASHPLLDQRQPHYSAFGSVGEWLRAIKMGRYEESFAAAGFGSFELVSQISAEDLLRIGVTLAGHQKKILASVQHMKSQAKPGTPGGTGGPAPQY

[13] = target: Mitogen-activated protein kinase kinase kinase 9 (Homo sapiens) (UniProt P80192)
[14] = target: Serine/threonine-protein kinase 35 (Homo sapiens) (UniProt Q8TDR2)

Measured: % residual kinase activity

Sequence of Mitogen-activated protein kinase kinase kinase 9 (Homo sapiens) (P80192 whole entry, looked up): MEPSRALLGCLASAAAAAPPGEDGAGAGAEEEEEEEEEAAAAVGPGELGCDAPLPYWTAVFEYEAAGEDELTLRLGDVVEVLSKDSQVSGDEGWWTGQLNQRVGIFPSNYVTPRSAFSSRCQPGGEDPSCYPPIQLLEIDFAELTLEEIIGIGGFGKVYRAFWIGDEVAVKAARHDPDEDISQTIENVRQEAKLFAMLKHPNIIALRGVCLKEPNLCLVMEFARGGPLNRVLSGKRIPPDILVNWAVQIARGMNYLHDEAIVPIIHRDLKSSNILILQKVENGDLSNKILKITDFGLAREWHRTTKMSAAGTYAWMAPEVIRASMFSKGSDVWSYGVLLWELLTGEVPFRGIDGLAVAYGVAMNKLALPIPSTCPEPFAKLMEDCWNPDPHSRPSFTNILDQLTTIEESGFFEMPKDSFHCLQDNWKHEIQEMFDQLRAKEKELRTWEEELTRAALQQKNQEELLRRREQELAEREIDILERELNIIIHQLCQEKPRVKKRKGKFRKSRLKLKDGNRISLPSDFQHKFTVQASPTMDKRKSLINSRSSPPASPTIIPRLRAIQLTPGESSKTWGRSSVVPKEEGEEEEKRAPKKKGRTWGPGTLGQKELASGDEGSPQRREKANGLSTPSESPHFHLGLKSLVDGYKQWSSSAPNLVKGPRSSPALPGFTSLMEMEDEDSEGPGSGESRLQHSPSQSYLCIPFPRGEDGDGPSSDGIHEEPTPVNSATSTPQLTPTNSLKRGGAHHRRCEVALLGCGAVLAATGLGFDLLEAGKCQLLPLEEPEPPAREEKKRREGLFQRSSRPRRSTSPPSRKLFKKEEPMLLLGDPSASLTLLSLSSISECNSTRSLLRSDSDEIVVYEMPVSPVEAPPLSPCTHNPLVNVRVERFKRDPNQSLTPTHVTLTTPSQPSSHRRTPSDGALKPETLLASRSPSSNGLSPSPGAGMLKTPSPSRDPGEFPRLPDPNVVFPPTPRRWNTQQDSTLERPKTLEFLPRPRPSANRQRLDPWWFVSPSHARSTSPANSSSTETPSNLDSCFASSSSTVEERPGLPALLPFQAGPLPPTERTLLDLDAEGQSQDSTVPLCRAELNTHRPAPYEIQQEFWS
Sequence of Cyclin-dependent kinase 5/CDK5 activator 1 (Homo sapiens) (Q00535 whole entry, canonical isoform): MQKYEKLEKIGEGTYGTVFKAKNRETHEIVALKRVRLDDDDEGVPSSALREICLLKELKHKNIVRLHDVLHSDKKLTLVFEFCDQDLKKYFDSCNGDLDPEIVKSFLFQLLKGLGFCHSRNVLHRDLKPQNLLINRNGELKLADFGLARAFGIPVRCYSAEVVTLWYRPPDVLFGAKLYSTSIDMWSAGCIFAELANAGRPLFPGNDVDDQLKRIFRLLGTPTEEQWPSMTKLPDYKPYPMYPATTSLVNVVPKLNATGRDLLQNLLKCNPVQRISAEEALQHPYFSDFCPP
Sequence of Cyclin-dependent kinase 5/CDK5 activator 1 (Homo sapiens) (Q15078 99-307 partner limits assumed): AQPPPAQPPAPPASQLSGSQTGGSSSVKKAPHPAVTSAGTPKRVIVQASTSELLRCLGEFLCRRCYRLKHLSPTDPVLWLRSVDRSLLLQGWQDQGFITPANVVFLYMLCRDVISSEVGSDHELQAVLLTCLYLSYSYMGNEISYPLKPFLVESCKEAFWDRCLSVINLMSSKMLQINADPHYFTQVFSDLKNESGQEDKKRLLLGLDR
Sequence of Vascular endothelial growth factor receptor 3 (Homo sapiens) (P35916 whole entry): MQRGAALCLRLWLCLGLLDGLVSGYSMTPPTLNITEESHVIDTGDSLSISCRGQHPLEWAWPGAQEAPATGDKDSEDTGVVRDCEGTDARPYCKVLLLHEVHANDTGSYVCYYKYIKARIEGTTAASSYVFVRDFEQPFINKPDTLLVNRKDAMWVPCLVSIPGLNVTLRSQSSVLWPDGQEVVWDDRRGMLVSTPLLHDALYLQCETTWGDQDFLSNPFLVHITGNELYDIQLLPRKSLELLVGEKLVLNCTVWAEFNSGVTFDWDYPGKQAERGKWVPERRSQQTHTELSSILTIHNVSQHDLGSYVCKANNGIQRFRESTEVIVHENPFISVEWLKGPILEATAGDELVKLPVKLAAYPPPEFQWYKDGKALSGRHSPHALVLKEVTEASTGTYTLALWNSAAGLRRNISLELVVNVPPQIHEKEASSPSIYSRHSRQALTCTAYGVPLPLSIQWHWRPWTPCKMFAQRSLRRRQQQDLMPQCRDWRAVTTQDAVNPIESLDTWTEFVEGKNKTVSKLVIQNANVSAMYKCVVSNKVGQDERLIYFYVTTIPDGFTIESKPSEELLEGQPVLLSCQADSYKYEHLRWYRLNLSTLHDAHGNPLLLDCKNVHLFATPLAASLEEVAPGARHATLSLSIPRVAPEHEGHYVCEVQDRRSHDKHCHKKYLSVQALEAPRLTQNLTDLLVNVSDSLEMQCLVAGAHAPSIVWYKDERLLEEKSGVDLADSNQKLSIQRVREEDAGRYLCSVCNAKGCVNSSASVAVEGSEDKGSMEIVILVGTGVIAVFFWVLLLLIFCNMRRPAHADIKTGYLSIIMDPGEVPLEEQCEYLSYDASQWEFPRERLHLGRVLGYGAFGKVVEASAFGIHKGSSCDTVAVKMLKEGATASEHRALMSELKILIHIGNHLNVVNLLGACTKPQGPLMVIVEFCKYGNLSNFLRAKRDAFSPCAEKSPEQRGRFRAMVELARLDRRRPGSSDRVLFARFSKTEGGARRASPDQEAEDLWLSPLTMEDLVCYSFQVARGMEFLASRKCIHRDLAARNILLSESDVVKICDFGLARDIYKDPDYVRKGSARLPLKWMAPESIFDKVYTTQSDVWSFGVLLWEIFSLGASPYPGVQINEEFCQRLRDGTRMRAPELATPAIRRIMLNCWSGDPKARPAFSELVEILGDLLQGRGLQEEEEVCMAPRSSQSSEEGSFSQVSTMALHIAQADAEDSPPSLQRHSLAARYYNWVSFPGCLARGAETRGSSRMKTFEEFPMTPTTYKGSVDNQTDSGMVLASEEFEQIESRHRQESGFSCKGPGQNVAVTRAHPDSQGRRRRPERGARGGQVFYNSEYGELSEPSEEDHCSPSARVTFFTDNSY
Sequence of Ribosomal protein S6 kinase alpha-6 (Homo sapiens) (Q9UK32 whole entry): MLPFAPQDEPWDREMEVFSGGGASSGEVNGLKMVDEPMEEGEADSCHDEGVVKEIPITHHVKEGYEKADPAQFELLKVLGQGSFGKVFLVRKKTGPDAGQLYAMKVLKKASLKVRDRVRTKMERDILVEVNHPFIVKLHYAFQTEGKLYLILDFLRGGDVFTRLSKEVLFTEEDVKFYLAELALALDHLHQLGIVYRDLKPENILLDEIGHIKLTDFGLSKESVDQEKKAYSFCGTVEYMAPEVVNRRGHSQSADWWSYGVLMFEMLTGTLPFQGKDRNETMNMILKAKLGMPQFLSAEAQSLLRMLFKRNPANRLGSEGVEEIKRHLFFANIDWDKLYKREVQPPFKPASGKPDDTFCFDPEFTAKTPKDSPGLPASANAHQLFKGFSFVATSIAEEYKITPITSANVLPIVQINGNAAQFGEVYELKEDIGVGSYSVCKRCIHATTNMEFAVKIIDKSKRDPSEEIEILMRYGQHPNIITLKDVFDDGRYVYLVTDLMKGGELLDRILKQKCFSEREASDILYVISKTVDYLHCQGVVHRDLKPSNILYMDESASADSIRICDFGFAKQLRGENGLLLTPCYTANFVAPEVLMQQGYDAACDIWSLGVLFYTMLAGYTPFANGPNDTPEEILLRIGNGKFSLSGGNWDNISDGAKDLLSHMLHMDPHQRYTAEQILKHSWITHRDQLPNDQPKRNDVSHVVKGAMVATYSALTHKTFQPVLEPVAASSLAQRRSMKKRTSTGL
Sequence of Mitogen-activated protein kinase 8 (Homo sapiens) (P45983 whole entry): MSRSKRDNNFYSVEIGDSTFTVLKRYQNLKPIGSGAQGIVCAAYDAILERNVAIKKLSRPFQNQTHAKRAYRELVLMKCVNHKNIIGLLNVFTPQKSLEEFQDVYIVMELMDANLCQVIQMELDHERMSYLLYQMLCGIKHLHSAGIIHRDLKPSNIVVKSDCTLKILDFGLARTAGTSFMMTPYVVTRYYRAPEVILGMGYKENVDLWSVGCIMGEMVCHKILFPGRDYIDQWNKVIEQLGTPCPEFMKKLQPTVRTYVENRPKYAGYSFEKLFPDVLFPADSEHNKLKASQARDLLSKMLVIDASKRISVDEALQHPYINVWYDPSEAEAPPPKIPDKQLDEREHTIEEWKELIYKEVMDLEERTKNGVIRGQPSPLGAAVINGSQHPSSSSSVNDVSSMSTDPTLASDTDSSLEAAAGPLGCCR
Sequence of RAC-gamma serine/threonine-protein kinase (Homo sapiens) (Q9Y243 whole entry): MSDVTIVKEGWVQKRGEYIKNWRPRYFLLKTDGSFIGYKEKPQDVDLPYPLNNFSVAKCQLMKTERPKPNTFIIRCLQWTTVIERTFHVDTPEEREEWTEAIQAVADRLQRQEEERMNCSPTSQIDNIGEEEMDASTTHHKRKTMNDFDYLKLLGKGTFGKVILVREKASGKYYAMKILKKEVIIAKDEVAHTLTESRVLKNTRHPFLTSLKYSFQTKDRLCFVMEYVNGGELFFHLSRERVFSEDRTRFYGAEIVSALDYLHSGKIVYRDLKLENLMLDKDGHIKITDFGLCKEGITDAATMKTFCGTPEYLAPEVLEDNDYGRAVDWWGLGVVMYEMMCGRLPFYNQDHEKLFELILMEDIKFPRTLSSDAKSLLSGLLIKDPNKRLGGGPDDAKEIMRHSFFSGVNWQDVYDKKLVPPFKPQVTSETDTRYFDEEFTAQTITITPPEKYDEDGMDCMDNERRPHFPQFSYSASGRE
Sequence of Phosphorylase b kinase gamma catalytic chain, skeletal muscle/heart isoform (Homo sapiens) (Q16816 whole entry, looked up, canonical isoform): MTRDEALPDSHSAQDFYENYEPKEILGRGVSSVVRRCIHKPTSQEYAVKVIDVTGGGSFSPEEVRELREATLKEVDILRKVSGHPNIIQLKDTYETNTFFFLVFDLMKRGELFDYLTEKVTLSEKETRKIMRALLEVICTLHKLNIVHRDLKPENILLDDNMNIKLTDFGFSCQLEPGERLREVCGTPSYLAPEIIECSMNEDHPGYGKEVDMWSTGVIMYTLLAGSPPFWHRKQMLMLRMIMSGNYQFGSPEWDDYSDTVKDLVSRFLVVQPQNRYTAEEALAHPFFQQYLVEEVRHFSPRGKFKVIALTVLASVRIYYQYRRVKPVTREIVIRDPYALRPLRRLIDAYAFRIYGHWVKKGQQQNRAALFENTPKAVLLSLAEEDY

CN1CCN(c2cnc3c(C4CCN(C(=O)c5ccc(OC(F)(F)F)cc5N)CC4)ncnc3c2)CC1 [BAY-885]
inactive: [1] 101% | [2] 104% | [3] 114% | [4] 103% | [5] 98% | [6] 117% | [7] 107% | [8] 106% | [9] 103% | [10] 113% | [11] 103% | [12] 103% | [13] 108% | [14] 116%

— ChEMBL document CHEMBL4507268 (2021)
